Assay results taken from patent US8241680B2, “Nutraceutical product containing anatabine and yerba maté” (priority 2010, dated 2012).

Legend:
[1] = Stability analysis of Formula I (purity by HPLC on storage); type: physicochemical
Excerpt: Several batches of Formula I produced by reacting benzophenoneimine with aminomethylpyridine in the absence of benzene were stored refrigerated and also at room temperature.

[2] = Stability analysis of anatabine base with and without BHT as a preservative; type: physicochemical
Method: See, for example, Tables 3 and 4 in Examples 4 and 5, respectively. Purity of the anatabine may be retained for extended periods of time. […] Further, anatabine remains stable when stored at a variety of temperatures. For example, the anatabine retains the indicated purity when stored at −20° C. to −10° C., −20° C. to 0° C., −10° C. to 0° C., 0° C. to 4° C., 2° C. to 8° C., 5° C. to 10° C., 10° C. to 15° C., 15° C. to 25° C., or 25° C. to 28° C. Stability is determined by any suitable art-recognized method. For example, anatabine stability may be monitored by high performance liquid chromatography (HPLC), liquid chromatography-mass spectroscopy (LC-MS), or nuclear magnetic resonance (NMR).
Anatabine base stability was analyzed with and without BHT (3,5-di-tert-butyl-4-hydroxytoluene). The initial purity of BHT-free anatabine base was 94.95%. The initial purity of anatabine base with BHT was 94.87%.

Structure (SMILES): c1ccc(C(=NCc2cccnc2)c2ccccc2)cc1 [Formula I, benzylhydrylidene-pyridin-3-ylmethyl-amine]
- Purity (%) (stored at 2-8° C.) ([1]; day 1, 2-8° C.): 88.61%
- Purity (%) (stored at 25-28° C.) ([1]; day 1, 25-28° C.): 88.93%
- Purity (%) (stored at 2-8° C.) ([1]; day 2, 2-8° C.): 88.83%
- Purity (%) (stored at 25-28° C.) ([1]; day 2, 25-28° C.): 85.49%
- Purity (%) (stored at 2-8° C.) ([1]; day 3, 2-8° C.): 88.30%
- Purity (%) (stored at 25-28° C.) ([1]; day 3, 25-28° C.): 88.02%
- Purity (%) (stored at 2-8° C.) ([1]; day 6, 2-8° C.): 88.83%
- Purity (%) (stored at 25-28° C.) ([1]; day 6, 25-28° C.): 86.62%
- Purity (%) (stored at 2-8° C.) ([1]; day 12, 2-8° C.): 88.75%
- Purity (%) (stored at 25-28° C.) ([1]; day 12, 25-28° C.): 87.47%
- Purity (%) (stored at 2-8° C.) ([1]; day 18, 2-8° C.): 88.46%
- Purity (%) (stored at 25-28° C.) ([1]; day 18, 25-28° C.): 87.25%
- Purity on storage ([1]; refrigerated): constant
- Deviation of purity on storage ([1]; room temperature): 1-2%

Structure (SMILES): C1=CCC(c2cccnc2)NC1 (stereo not shown) [anatabine base, anatabine]
- Initial purity ([2]; BHT-free): 94.95%
- Purity (%) (with BHT) ([2]; day 1, 2-8° C., with BHT): 93.26%
- Purity (%) (without BHT) ([2]; day 1, 2-8° C.): 94.44%
- Purity (%) (with BHT) ([2]; day 1, 25-28° C., with BHT): 93.27%
- Purity (%) (without BHT) ([2]; day 1, 25-28° C.): 89.63%
- Purity (%) (with BHT) ([2]; day 1, −20° C., with BHT): 94.26%
- Purity (%) (without BHT) ([2]; day 1, −20° C.): 93.90%
- Purity (%) (with BHT) ([2]; day 2, 2-8° C., with BHT): 94.83%
- Purity (%) (without BHT) ([2]; day 2, 2-8° C.): 94.05%
- Purity (%) (with BHT) ([2]; day 2, 25-28° C., with BHT): 92.73%
- Purity (%) (without BHT) ([2]; day 2, 25-28° C.): 87.59%
- Purity (%) (with BHT) ([2]; day 2, −20° C., with BHT): 94.73%
- Purity (%) (without BHT) ([2]; day 2, −20° C.): 94.62%
- Purity (%) (with BHT) ([2]; day 3, 2-8° C., with BHT): 94.26%
- Purity (%) (without BHT) ([2]; day 3, 2-8° C.): 91.65%
- Purity (%) (with BHT) ([2]; day 3, 25-28° C., with BHT): 87.44%
- Purity (%) (without BHT) ([2]; day 3, 25-28° C.): 80.74%
- Purity (%) (with BHT) ([2]; day 3, −20° C., with BHT): 94.62%
- Purity (%) (without BHT) ([2]; day 3, −20° C.): 93.87%
- Purity (%) (with BHT) ([2]; day 12, 2-8° C., with BHT): 94.18%
- Purity (%) (without BHT) ([2]; day 12, 2-8° C.): 90.12%
- Purity (%) (with BHT) ([2]; day 12, 25-28° C., with BHT): 85.10%
- Purity (%) (without BHT) ([2]; day 12, 25-28° C.): 79.59%
- Purity (%) (with BHT) ([2]; day 12, −20° C., with BHT): 94.74%
- Purity (%) (without BHT) ([2]; day 12, −20° C.): 94.01%
- Initial purity ([2]; with BHT): 94.87%
